Measurements: patent EP2050748A1, “Novel fused pyrimidines” (Bayer Schering Pharma Aktiengesellschaft, priority 2007, dated 2009)

system: phosphorylated Akt protein (Ser473); assay: Cellular PI3K / Akt pathway assay (phospho-Akt ELISA); type: cell-based; settings: Homo sapiens; MCF7 cells, stimulated with ß-Heregulin (20ng/ml), compound incubated 48h, phospho-Akt1 (Ser473) ELISA
Protocol: In order to study the cellular activity of the compounds according to the present invention, an Enzyme Linked Immunosorbent Assay (ELISA)-based assay has been used specific phospho-AKT. The assay is based on a Sandwich ELISA kit (PathScan™ Phospho-Akt1 (Ser473); Cell Signaling, USA; #7160).
The ELISA Kit detects endogenous levels of phosphorylated Akt protein. A phospho-Akt (Ser473) antibody (Cell Signaling, USA; #9271) has been coated onto the microwells. After incubation with cell lysates, the coated antibody captures the phosphorylated Akt protein. Following extensive washing, Akt1 monoclonal antibody (Cell Signaling, USA; #2967) is added to detect the captured phospho-Akt1 protein. HRP-linked anti-mouse antibody (HRP: horseradish peroxidase; Cell Signaling, USA; #7076) is then used to recognize the bound detection antibody. HRP substrate (= 3,3',5,5'-tetramethylbenzidine (TMB); Cell Signaling, USA; #7160) is added to develop colour. The magnitude of optical density for this developed color is proportional to the quantity of phosphorylated Akt protein.
MCF7 cells (ATCC HTB-22) are seeded into 96 well fate bottom plates at a density of 10000 cells/well. 24 hours after seeding, the cells are serum starved using low-serum medium (IMEM media including 0,1% charcoal treated FCS (FCS: fetal calf serum)). After 24 hours 1 µl each of the compound dilutions (test compounds were dissolved as 10 mM solutions in dimethylsulfoxide (DMSO) and subsequently diluted) are added into each well of the 96 well plates and incubated for 48h at 37°C in a humidified athmosphere containing 5% CO2. To stimulate Akt phosphorylation, ß-Heregulin (20ng/ml β-HRG) is added in parallel to the compounds. Wells containing unstimulated control cells (no β-Heregulin stimulation) are incubated with or without the diluted compound. Wells containing untreated control cells (no compound) are filled with medium containing 0.5% v:v DMSO and are or are not stimulated with β-Heregulin.
Cells are harvested and lysed with brief sonification in 1x x cell lysis buffer (20mM Tris (pH7.5), 150 mM NaCl, 1 mM ethylene diaminetetraacetate (EDTA), 1 mM ethylene glycolbis(2-aminoethyl)-N,N,N',N'-tetraacetic acid (EGTA), 1vol% Triton X-100, 2.5mM sodium pyrophosphate, 1 mM β-glycerolphosphate, 1 mM Na3VO4, 1 µg/ml leupeptin). The lysate is centrifuged for 10 min. at 4°C and the supernatant is transferred to a new tube. 100 µl of sample diluent (0.1vol% Tween-20, 0.1vol% sodium azide in phosphate buffered saline (PBS)) are added to a microcentrifuge tube and 100 µl of cell lysate are transferred into the tube and vortexed. 100 µl of each diluted cell lysate are added to the appropriate ELISA well, and incubated overnight at 4°C. The plates are washed 4 times with 1 x wash buffer (1 vol% tween-20, 0.33vol% thymol, in PBS). Next 100 µl of detection antibody (Akt1 (2H10) monoclonal detection antibody; Cell Signaling, USA; #2967) are added to each well and incubation continued for 1 h at 37°C. The washing procedure is repeated between each step. 100µl of secondary antibody (anti-mouse IgG HRP-linked antibody; Cell Signaling, USA; #7076) are added to each well and incubated for 30 min. at 37°C. Than, 100µl of TMB substrate (0.05% 3,3',5,5' tetramethylbenzidine, 0.1 % hydrogen peroxide, complex polypeptides in a buffered solution; Cell Signaling, USA; #7160) are added to each well and incubated for 30 min. at 25°C. Finally 100 µl of STOP solution (0.05vol% α and β unsaturated carbonyl compound) are added to each well and the plate are shaked gently. The absorbance is measured at λ=450 nm (Wallac Victor2; Perkin Elmer, USA) within 30 min. after adding the STOP solution. The analysis of the data is performed using a statistical program (Excel; Microsoft, USA). Preferred compounds show an inhibitory activity towards Akt phosphorylation below 10µM.

Compound | IC50 [nM]
Clc1cnc2nc(-c3ccc(CN4CCC(c5n[nH]c(-c6ccccn6)n5)CC4)cc3)c(-c3ccccc3)cn12 [Example 12, 3-chloro-6-phenyl-7-(4-{[4-(5-pyridin-2-yl-1,2,4-triazol-3-yl)piperidin-1-yl]methyl}phenyl)imidazo[1,2-a]pyrimidine] | < 1000
Brc1cnc2nc(-c3ccc(CN4CCC(c5n[nH]c(-c6ccccn6)n5)CC4)cc3)c(-c3ccccc3)cn12 [Example 11, 3-bromo-6-phenyl-7-(4-{[4-(5-pyridin-2-yl-1,2,4-triazol-3-yl)piperidin-1-yl]methyl}phenyl)imidazo[1,2-a]pyrimidine] | < 1000
c1ccc(-c2cn3nc(C4CC4)nc3nc2-c2ccc(CN3CCC(c4n[nH]c(-c5ccccn5)n4)CC3)cc2)cc1 [Example 4, 2-cyclopropyl-6-phenyl-5-(4-{[4-(5-pyridin-2-yl-1,2,4-triazol-3-yl)piperidin-1-yl]methyl}phenyl)[1,2,4]triazolo[1,5-a]pyrimidine] | < 1000
Cc1nc2nc(-c3ccc(CN4CCC(c5n[nH]c(-c6ccccn6)n5)CC4)cc3)c(-c3ccccc3)cn2n1 [Example 3, 2-methyl-6-phenyl-5-(4-{[4-(5-pyridin-2-yl-1,2,4-triazol-3-yl)piperidin-1-yl]methyl}phenyl)[1,2,4]triazolo[1,5-a]pyrimidine] | < 1000
C#Cc1cnc2nc(-c3ccc(CN4CCC(c5n[nH]c(-c6ccccn6)n5)CC4)cc3)c(-c3ccccc3)cn12 [Example 13, 3-ethynyl-6-phenyl-7-(4-{[4-(5-pyridin-2-yl-1,2,4-triazol-3-yl)piperidin-1-yl]methyl}phenyl)imidazo[1,2-a]pyrimidine] | < 1000
c1ccc(-c2cn3ccnc3nc2-c2ccc(CN3CCC(c4nc(-c5ccccn5)n[nH]4)CC3)cc2)cc1 [Example 1, 6-phenyl-7-(4-{[4-(3-pyridin-2-yl-1,2,4-triazol-5-yl)piperidin-1-yl]methyl}phenyl)imidazo[1,2-a]pyrimidine] | < 1000
Fc1cnc2nc(-c3ccc(CN4CCC(c5n[nH]c(-c6ccccn6)n5)CC4)cc3)c(-c3ccccc3)cn12 [Example 9, 3-fluoro-6-phenyl-7-(4-{[4-(5-pyridin-2-yl-1H-1,2,4-triazol-3-yl)piperidin-1-yl]methyl}phenyl)imidazo[1,2-a]pyrimidine] | < 1000
Cc1cnc2nc(-c3ccc(CN4CCC(c5n[nH]c(-c6ccccn6)n5)CC4)cc3)c(-c3ccccc3)cn12 [Example 14, 3-methyl-6-phenyl-7-(4-{[4-(5-pyridin-2-yl-1,2,4-triazol-3-yl)piperidin-1-yl]methyl}phenyl)imidazo[1,2-a]pyrimidine] | < 1000
c1ccc(-c2cn3ccnc3nc2-c2ccc(CN3CCC(n4cnc(-c5ccccn5)c4)CC3)cc2)cc1 [Example 20, 6-phenyl-7-(4-{[4-(4-pyridin-2-yl-imidazol-1-yl)piperidin-1-yl]methyl}phenyl)imidazo[1,2-a]pyrimidine] | < 1000
c1ccc(-c2cn3ccnc3nc2-c2ccc(CN3CCC(c4n[nH]c(-c5ccncc5)n4)CC3)cc2)cc1 [Example 6, 6-phenyl-7-(4-{[4-(5-pyridin-4-yl-1,2,4-triazol-3-yl)piperidin-1-yl]methyl}phenyl)imidazo[1,2-a]pyrimidine] | < 1000
CNc1c(-c2ccccc2)c(-c2ccc(CN3CCC(c4n[nH]c(-c5ccccn5)n4)CC3)cc2)nc2nccn12 [Example 10, N-methyl-6-phenyl-7-(4-{[4-(5-pyridin-2-yl-1,2,4-triazol-3-yl)piperidin-1-yl]methyl}phenyl)imidazo[1,2-a]pyrimidin-5-amine] | 1000 to 10000
c1ccc(-c2cn3ccnc3nc2-c2ccc(CN3CCC(c4cc(-c5ccccn5)n[nH]4)CC3)cc2)cc1 [Example 5, 6-phenyl-7-(4-{[4-(3-pyridin-2-yl-pyrazol-5-yl)piperidin-1-yl]methyl}phenyl)imidazo[1,2-a]pyrimidine] | < 1000
CCc1cnc2nc(-c3ccc(CN4CCC(c5n[nH]c(-c6ccccn6)n5)CC4)cc3)c(-c3ccccc3)cn12 [Example 22, 3-ethyl-6-phenyl-7-(4-{[4-(5-pyridin-2-yl-1,2,4-triazol-3-yl)piperidin-1-yl]methyl}phenyl)imidazo[1,2-a]pyrimidine] | < 1000
c1ccc(-c2cn3ccnc3nc2-c2ccc(CN3CCC(c4n[nH]c(-c5cnccn5)n4)CC3)cc2)cc1 [Example 21, 6-phenyl-7-(4-{[4-(5-pyrazin-2-yl-1,2,4-triazol-3-yl)piperidin-1-yl]methyl}phenyl)imidazo[1,2-a]pyrimidine] | < 1000
c1ccc(-c2cn3nc(C4CCC4)nc3nc2-c2ccc(CN3CCC(c4n[nH]c(-c5ccccn5)n4)CC3)cc2)cc1 [Example 7, 2-cyclobutyl-6-phenyl-5-(4-{[4-(5-pyridin-2-yl-1,2,4-triazol-3-yl)piperidin-1-yl]methyl}phenyl)[1,2,4]triazolo[1,5-a]pyrimidine] | < 1000
c1ccc(-c2cn3ncnc3nc2-c2ccc(CN3CCC(c4n[nH]c(-c5ccccn5)n4)CC3)cc2)cc1 [Example 2, 6-phenyl-5-(4-([4-(5-pyridin-2-yl-1,2,4-triazol-3-yl)piperidin-1-yl]methyl}phenyl)[1,2,4]triazolo[1,5-a]pyrimidine] | < 1000
C=Cc1cnc2nc(-c3ccc(CN4CCC(c5n[nH]c(-c6ccccn6)n5)CC4)cc3)c(-c3ccccc3)cn12 [Example 15, 6-phenyl-7-(4-{[4-(5-pyridin-2-yl-1,2,4-triazol-3-yl)piperidin-1-yl]methyl}phenyl)-3-vinylimidazo[1,2-a]pyrimidine] | < 1000
c1ccc(-c2cn3nccc3nc2-c2ccc(CN3CCC(c4n[nH]c(-c5ccccn5)n4)CC3)cc2)cc1 [Example 19, 6-phenyl-5-(4-{[4-(5-pyridin-2-yl-1,2,4-triazol-3-yl)piperidin-1-yl]methyl}phenyl)pyrazolo[1,5-a]pyrimidine] | < 1000
c1ccc(-c2cn3ccnc3nc2-c2ccc(CN3CCC(c4n[nH]c(-c5ncccn5)n4)CC3)cc2)cc1 [Example 18, 6-phenyl-7-(4-{[4-(5-pyrimidin-2-yl-1,2,4-triazol-3-yl)piperidin-1-yl]methyl}phenyl)imidazo[1,2-a]pyrimidine] | 1000 to 10000
CCc1cn2cc(-c3ccccc3)c(-c3ccc(CN4CCC(c5n[nH]c(-c6ccccn6)n5)CC4)cc3)nc2n1 [Example 17, 2-ethyl-6-phenyl-7-(4-{[4-(5-pyridin-2-yl-1,2,4-triazol-3-yl)piperidin-1-yl]methyl}phenyl)imidazo[1,2-a]pyrimidine] | < 1000
N#Cc1cnc2nc(-c3ccc(CN4CCC(c5n[nH]c(-c6ccccn6)n5)CC4)cc3)c(-c3ccccc3)cn12 [Example 8, 6-phenyl-7-(4-{[4-(5-pyridin-2-yl-1,2,4-triazol-3-yl)piperidin-1-yl]methyl}phenyl)imidazo[1,2-a]pyrimidine-3-carbonitrile] | < 1000
